Experimental data: patent US20250197391A1, “METHODS OF SYNTHESIZING EGFR INHIBITORS” (Scorpion Therapeutics, Inc., priority 2022, published 2025)
Values after ≈ are worked out from the molar mass of the structure shown. Values joined by “and” are separate entries in the source; they are usually repeats but may differ in a detail not shown here. Equal entries are not always repeated. Values belong to the molecule of their own block, whether it stands above or below them.

Assays:
[1] = Solubility data in solvents; format: physicochemical; details: for solubility: organic solvent or mixture
[2] = Stability of process solutions / solid on drying over days (HPLC area %); format: physicochemical

solubility ([1]; solvent 2-MeTHF): 5 mg/mL (≈ 11.2 mM)
solubility ([1]; solvent DMAC): > 200 mg/mL
solubility ([1]; solvent DMF): > 100 mg/mL
solubility ([1]; solvent DMSO): > 100 mg/mL
solubility ([1]; solvent HFIP): 94 mg/mL (≈ 210 mM)
solubility ([1]; solvent MeCN): 2 mg/mL (≈ 4.47 mM)
solubility ([1]; solvent NMP): > 100 mg/mL
solubility ([1]; solvent TFE): 79 mg/mL (≈ 176 mM)
solubility ([1]; solvent THE): 31 mg/mL (≈ 69.2 mM)
SMILES: COc1c(Cl)cccc1Nc1c(-c2ccncc2Br)[nH]c2c1C(=O)NCC2 [Compound 102, 2-(3-bromopyridin-4-yl)-3-((3-chloro-2-methoxyphenyl)amino)-1,5,6,7-tetrahydro-4H-pyrrolo[3,2-c]pyridin-4-one]
Dissolution in crystallization solvents ([1]; 5 V of DCM, MeCN, MTBE, THF, MeOH, EtOAc or toluene at reflux): has not been dissolved in all these solvents at reflux except for THE

solubility ([1]; solvent ACN): 33 mg/mL (≈ 60.2 mM)
solubility ([1]; solvent DCM): > 125 mg/mL
solubility ([1]; solvent EtOAc): 6.25 mg/mL (≈ 11.4 mM)
solubility ([1]; solvent EtOH): 6.25 mg/mL (≈ 11.4 mM)
solubility ([1]; solvent MTBE): 6.25 mg/mL (≈ 11.4 mM)
solubility ([1]; solvent MeOH): 7.1 mg/mL (≈ 13 mM)
solubility ([1]; solvent n-heptane): < 5 mg/mL
solubility ([1]; solvent toluene): < 5 mg/mL
SMILES: COc1c(Cl)cccc1Nc1c(-c2ccncc2Br)[nH]c2c1C(=O)N(C(=O)OC(C)(C)C)CC2 [Compound 101, tert-butyl 2-(3-bromopyridin-4-yl)-3-((3-chloro-2-methoxyphenyl)amino)-4-oxo-1,4,6,7-tetrahydro-5H-pyrrolo[3,2-c]pyridine-5-carboxylate]

Area % after hold ([2]; IPAC solution pH = 5-6, 20 ± 5 C., 0 d): 90.1 A %
Area % after hold ([2]; IPAC solution pH = 5-6, 20 ± 5 C., 1 d): 89.8 A %
Area % after hold ([2]; IPAC solution pH = 5-6, 20 ± 5 C., 3 d): 90.9 A %
Area % after hold ([2]; IPAC solution, 25 ± 5 C., 0 d): 87.3%
Area % after hold ([2]; IPAC solution, 25 ± 5 C., 1 d, listed as Comp. 2): 88.7% and 86.0%
Area % after hold ([2]; IPAC solution, 25 ± 5 C., 2 d, listed as Comp. 2): 86.5% and 85.6%
Area % after hold ([2]; IPAC solution, 25 ± 5 C., 3 d, listed as Comp. 2): 85.2% and 83.5%
Area % after hold ([2]; IPAC solution, 40 ± 5 C., 0 d): 90.1 A %
Area % after hold ([2]; IPAC solution, 40 ± 5 C., 1 d, listed as Comp. 2): 88.6 A % and 87.7 A %
Area % after hold ([2]; IPAC solution, 40 ± 5 C., 3 d, listed as Comp. 2): 84.7 A % and 80.0%
Area % after hold ([2]; on drying, 45 ± 5 C., 0 d): 99.7 A %
Area % after hold ([2]; on drying, 45 ± 5 C., 3 d): 99.8%
solubility ([1]; solvent ACN): 33 mg/mL (≈ 79.9 mM)
solubility ([1]; solvent DCM): > 200 mg/mL
solubility ([1]; solvent EtOAc): 100 mg/mL (≈ 242 mM)
solubility ([1]; solvent EtOH): < 5 mg/mL
solubility ([1]; solvent MTBE): 28 mg/mL (≈ 67.8 mM)
solubility ([1]; solvent MeOH): 5 mg/mL (≈ 12.1 mM)
solubility ([1]; solvent n-heptane): < 5 mg/mL
SMILES: COc1c(Cl)cccc1NC(=S)C1=C(O)CCN(C(=O)OC(C)(C)C)C1=O [Compound 2, tert-butyl 5-((3-chloro-2-methoxyphenyl)carbamothioyl)-4-hydroxy-6-oxo-3,6-dihydropyridine-1(2H)-carboxylate]

SMILES: COc1c(Cl)cccc1N=C=S [Compound 1, 1-chloro-3-isothiocyanato-2-methoxybenzene]
Area % after hold ([2]; IPAC solution, 40 ± 5 C., 1 d): 96.0 A %
Area % after hold ([2]; IPAC solution, 40 ± 5 C., 2 d): 95.9 A %
Area % after hold ([2]; IPAC solution, 40 ± 5 C., 3 d): 94.3 A %
Area % after hold ([2]; IPAC solution, 50 ± 5 C., 1 d): 95.5 A %
Area % after hold ([2]; IPAC solution, 50 ± 5 C., 2 d): 94.7 A %
Area % after hold ([2]; IPAC solution, 50 ± 5 C., 3 d): 90.5 A %
